Measured values from patent US7910584B2, “3-spiroindolin-2-one derivatives, preparation and therapeutic use thereof” (Sanofi-Aventis, priority 2004, dated 2011).

Molecular target: T1, recombinant human vasopressin V2 receptors (Homo sapiens, UniProt P30518)
T1 construct: expressed in transfected cells; host or cells: CHO cell line (plasma membranes)
Assay: In vitro binding assay, [3H]-AVP displacement on plasma membranes
Settings: membranes from tissues or CHO cell line expressing recombinant human V2 receptors; 3.5 nM [H3]-AVP; 45 minutes at 25° C.; read-out: IC50 (concentration of product that inhibits 50% of the specific binding)
Experimental: They were in particular tested with regard to their effects.
The affinity of the compounds of the invention for vasopressin V2 receptors was measured in in vitro binding assays, as described in J. Pharmacol. Exp. Ther., (2002), 300, pp. 1122-1130.
Plasma membranes (approximately 20 μg/ml) originating from tissues or the CHO cell line expressing recombinant human vasopressin V2 receptors are incubated for 45 minutes at 25° C. in 200 μl of TRIS-HCl buffer (50 mM; pH 8.2) containing 2 mM of MgCl2, 1 mM of EDTA, 0.1% of BSA, 1 mg/ml of bacitracin and 3.5 nM of [H^3]-AVP. The reaction is stopped by filtration and washing over GF/B filters. The nonspecific binding is determined in the presence of 1 μM of AVP. The compounds of the invention, dissolved beforehand at the concentration of 10^−2 M in DMSO, are tested in a dilution range.
For each concentration, the results are expressed as percentage inhibition of specific binding. An IC50 (concentration of product that inhibits 50% of the specific binding) is determined for each of the products using the “RS1 binding” program (BBN Domain, Cambridge, Mass.).

T1 sequence (P30518 whole entry): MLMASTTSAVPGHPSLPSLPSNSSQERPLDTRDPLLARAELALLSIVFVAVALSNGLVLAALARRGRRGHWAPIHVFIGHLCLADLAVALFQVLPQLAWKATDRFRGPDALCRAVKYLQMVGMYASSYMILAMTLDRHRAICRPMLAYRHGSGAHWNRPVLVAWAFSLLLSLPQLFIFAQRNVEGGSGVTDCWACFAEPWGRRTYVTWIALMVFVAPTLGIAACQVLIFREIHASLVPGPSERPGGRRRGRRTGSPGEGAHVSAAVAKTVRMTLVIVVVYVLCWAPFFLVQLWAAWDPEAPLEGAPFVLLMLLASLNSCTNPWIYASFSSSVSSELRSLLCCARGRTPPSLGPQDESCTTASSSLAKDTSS

SMILES: CCOc1ccc2c(c1)C1(CCC(OCCN3CCOCC3=O)CC1)C(=O)N2S(=O)(=O)c1ccc(C(=O)NC(C)(C)C)cc1OC (stereo not shown)
- IC50: ~7.3 nM
